Reference: paper PMC10458458, “Characterization of Anticancer Effects of the Analogs of DJ4, a Novel Selective Inhibitor of ROCK and MRCK Kinases” (Pharmaceuticals, 2023)

tested on: MDA-MB-231 breast cancer cells; assay: Caspase 3/7 assay (Muse); format: cell-based, human; settings: MDA-MB-231, 2.5 µM, 48 h (DMSO 6.2)
Method: Figure 8 DJ4 analogs induce cell cycle arrest and apoptotic cell death in MDA-MB-231 breast cancer cells. (A) DJ4 analogs induce cell cycle arrest in MDA-MB-231 breast cancer cells. To study the cell cycle arrest by DJ4 analogs, serum-starved cell cycle-synchronized MDA-MB-231 cells were treated with 2.5 µM concentration of each compound for 24 h and stained with propidium iodide. Treatment with all the analogs, except DJ-Morpholine, induced significant arrest of cells in G2/M phase of cell cycle. (B) Apoptotic cell death by DJ4 analogs was evaluated by measuring caspase 3/7 activation in breast cancer cells. Cells were treated with 2.5 µM concentration of each compound for 48 h and incubated with fluorescent dye. All the compounds except DJ-Morpholine induced significant apoptotic cell death. TEXT PRINTED IN THE PICTURE: (A) DMSO: G1 : 48.40%; S : 44%; G2/M: 7.60% | (A) DJ4: G1 : 27.41%; S : 38.58%; G2/M: 34.01% | (A) DJ-Allyl: G1 : 15.94%; S : 55.51%; G2/M: 28.54% | (A) DJE4: G1 : 19.14%; S : 58.48%; G2/M: 22.37% | (A) DJ110: G1 : 19.16%; S : 38.39%; G2/M: 42.51% | (A) DJ-Morpholine: G1 : 43.16%; S : 51.10%; G2/M: 5.74% | (B) DMSO: Dead 3.10 %; Apoptotic/Dead 4.40 %; 6.2; 1.75 % Apoptotic | (B) DJ4: Dead 5.45 %; Apoptotic/Dead 36.80 %; 52.9; 41.65 % Live; 16.10 % Apoptotic | (B) DJ-Allyl: Dead 3.05 %; Apoptotic/Dead 9.90 %; 18.1; 78.90 % Live; 8.15 % Apoptotic | (B) DJE4: Dead 1.85 %; Apoptotic/Dead 8.15 %; 13.4; 84.75 % Live; 5.25 % Apoptotic | (B) DJ110: Dead 9.05 %; Apoptotic/Dead 56.60 %; 64.4; 26.60 % Live; 7.75 % Apoptotic | (B) DJ-Morpholine: Dead 1.90 %; Apoptotic/Dead 5.00 %; 8.0; 90.10 % Live; 3.00 % Apoptotic DOUBTS OF THE COPYIST ABOUT THIS PICTURE: Panel A: the print is very small and blurred, so 3, 5, 6, 8 and 9 cannot be told apart with certainty in any of its values / A, DMSO: G1 48.40% or 46.40%; S 44% (a decimal part may be hidden); G2/M 7.60% or 7.80% / A, DJ4: G1 27.41%; S 38.58% or 38.98%; G2/M 34.01% uncertain / A, DJ-Allyl: G1 15.94%; S 55.51% or 53.51%; G2/M 28.54% or 26.54% uncertain / A, DJE4: G1 19.14%; S 58.48% or 58.46%; G2/M 22.37% uncertain / A, DJ110: G1 19.16% or 19.18%; S 38.39% or 38.33%; G2/M 42.51% uncertain / A, DJ-Morpholine: G1 43.16%; S 51.10%; G2/M 5.74% uncertain / B, DMSO, Live: the value is hidden by data points (only '.75 %' can be read, perhaps 90.75 or 89.75), so it is left out / B, DJ4, Live: partly hidden by data points, 41.65 is the best reading / B, DJ-Allyl, Live: partly hidden by data points, 78.90 or 76.90 / B, DJE4, Live: partly hidden by data points, 84.75 or 64.75 / B, DJ110, Live: partly hidden by data points, 26.60 or 28.60 / B, DJ-Morpholine, Live: partly hidden by data points, 90.10 or 20.10 / B: the large bold numbers (6.2, 52.9, 18.1, 13.4, 64.4, 8.0) are printed with no measure or unit
To determine whether the active analogs induce apoptotic cell death similar to the DJ4 parent compound, we treated MDA-MB-231 breast cancer cells with 2.5 µM concentration of all the analogs for 48 h (Figure 8). The cells were then analyzed for activation of caspase 3/7 (a marker for apoptotic cell death) and propidium iodide (a marker of cell membrane integrity) using the Muse^TM (EMD Millipore) two color bench-top flow cytometer. […]
To examine whether the selected compounds induce apoptosis, we treated MDA-MB-231 breast cancer cells with 5 µM of each compound. […] The data were quantified by using FlowJo software (version 10).

SMILES | apoptosis (Q2 + Q3), caspase 3/7 [%]
C=CC/N=C1\NC(=O)/C(=C\c2c[nH]c3ncccc23)S1 [DJ-Allyl] | 18.1
O=C1N/C(=N\Cc2ccccc2)S/C1=C/c1c[nH]c2ncccc12 [DJ110] | 64.4
O=C1N/C(=N\CCN2CCOCC2)S/C1=C/c1c[nH]c2ncccc12 [DJ-Morpholine] | 8
CC/N=C1\NC(=O)/C(=C\c2c[nH]c3ncccc23)S1 [DJE4] | 13.4
O=C1N/C(=N\CCc2ccccc2)S/C1=C/c1c[nH]c2ncccc12 [DJ4] | 52.9
